Laboratory results reported in patent US20070244111A1, “Pyrazolopyrimidines” (priority 2003, published 2007).
Like-named read-outs stand apart in the source and are kept apart here.

Assay: log P determination by HPLC (EEC Directive 79/831 Annex V. A8)
Format: physicochemical
Details: HPLC gradient method
Experimental: The log P values were determined in accordance with EEC Directive 79/831 Annex V. A8 by HPLC (gradient method, acetonitrile/0.1% aqueous phosphoric acid).

[1] = gradient of acetonitrile/0.1% aqueous phosphoric acid, acetonitrile/0.1% aqueous phosphoric acid (pH 2.3), read-out: HPLC: log P

| SMILES | chromatographic logP [1] | further results |
| --- | --- | --- |
| C=Cc1cnn2c(N3CCC(C)CC3)c(-c3ccc(F)cc3Cl)c(Cl)nc12 [Example 1, 3-vinyl-5-chloro-6-(2-chloro-4-fluorophenyl)-7-(4-methylpiperidino)pyrazolo[1 ,5a]pyrimidine] | 6.07 |  |
| C#Cc1cnn2c(N3CCC(C)CC3)c(-c3ccc(F)cc3Cl)c(Cl)nc12 [Example 9] | 5.31 |  |
| CC(Nc1c(-c2ccccc2Cl)c(Cl)nc2c(/C(Cl)=C/C=O)cnn12)C(C)(C)C (centres unmarked) [Example 29] |  | chromatographic logP (acetonitrile/0.1% aqueous phosphoric acid (pH 2.3), read-out: HPLC: log P): 5.98 |
| CC1CCN(c2c(-c3ccc(F)cc3Cl)c(Cl)nc3c(C=O)cnn23)CC1 [Example 142, 3-formyl-5-chloro-6-(2-chloro-4-fluorophenyl)-7-(4-methylpiperidino)pyrazolo[1,5-a]pyrimidine] |  | chromatographic logP (gradient of acetonitrile/0.1% aqueous phosphoric acid, pH 2.3, heading: HPLC: log P): 4.53 |

Further lines, with some results ahead:

| chromatographic logP [1] | SMILES | further results |
| --- | --- | --- |
| 7.21 | CC(C)/C=C/c1cnn2c(N3CCC(C)CC3)c(-c3ccc(F)cc3Cl)c(Cl)nc12 [Example 10] |  |
| 3.33 | N#Cc1cnn2c(N3CCOCC3)c(-c3ccc(F)cc3Cl)c(Cl)nc12 [Example 141] |  |
| 2.94 | O=Cc1cnn2c(N3CCOCC3)c(-c3ccc(F)cc3Cl)c(Cl)nc12 [Example 143] |  |
| 3.48 | N#Cc1cnn2c(Cl)c(-c3ccc(F)cc3Cl)c(Cl)nc12 [Example 145, 3-cyano-5,7-dichloro-6-(2-chloro-4-fluorophenyl)pyrazolo[1 ,5-a]pyrimidine] |  |
